Reference: US20170369444A1, “INHIBITORS OF HISTONE DEMETHYLASES” (Gilead Sciences, Inc., priority 2014, published 2017)

Experiments:
Assay type in all cases: biochemical
KDM5B (PLU-1) = target: T1, KDM5B (PLU-1) (Homo sapiens, UniProt Q9UGL1); assay: Histone lysine demethylase AlphaLISA assay, KDM5B; conditions: in vitro enzyme, read-out: KDM5B IC50 (HDME Inhibition)
T1 construct: 1-809; host or cells: E. coli
T1 sequence (Q9UGL1 1-809): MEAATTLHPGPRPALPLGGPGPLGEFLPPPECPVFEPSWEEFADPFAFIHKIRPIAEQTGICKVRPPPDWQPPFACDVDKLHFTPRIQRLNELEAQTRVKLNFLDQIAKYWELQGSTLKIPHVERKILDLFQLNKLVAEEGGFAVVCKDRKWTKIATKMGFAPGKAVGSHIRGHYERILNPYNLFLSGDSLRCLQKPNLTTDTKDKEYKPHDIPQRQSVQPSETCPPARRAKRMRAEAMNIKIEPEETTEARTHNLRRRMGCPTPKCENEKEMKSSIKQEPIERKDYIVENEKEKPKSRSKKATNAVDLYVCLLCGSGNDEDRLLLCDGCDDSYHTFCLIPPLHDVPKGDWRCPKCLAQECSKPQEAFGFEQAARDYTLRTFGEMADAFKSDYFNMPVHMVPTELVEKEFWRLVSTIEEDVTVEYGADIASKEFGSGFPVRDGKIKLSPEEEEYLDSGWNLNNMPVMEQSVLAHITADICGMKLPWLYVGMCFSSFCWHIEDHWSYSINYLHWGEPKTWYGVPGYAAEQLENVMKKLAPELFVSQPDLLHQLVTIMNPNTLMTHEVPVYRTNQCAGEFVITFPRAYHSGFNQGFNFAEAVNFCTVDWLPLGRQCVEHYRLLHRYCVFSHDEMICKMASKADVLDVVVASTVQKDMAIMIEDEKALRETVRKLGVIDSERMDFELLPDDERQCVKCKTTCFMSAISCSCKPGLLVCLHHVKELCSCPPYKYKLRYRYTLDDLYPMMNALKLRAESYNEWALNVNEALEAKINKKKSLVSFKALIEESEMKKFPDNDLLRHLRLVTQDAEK
Method: (§1) Histone lysine demethylase AlphaLISA assays are performed to determine IC50 values. […] Assays are performed analogously to the protocol described by PerkinElmer (Roy et al. PerkinElmer Technical Note: AlphaLISA #12, April 2011).
(§2) Assays are performed analogously to the protocol described by PerkinElmer (Roy et al. PerkinElmer Technical Note: AlphaLISA #12, April 2011).
(§3) Enzymes (final assay concentration 0.1-2.5 nM) are dissolved in enzyme buffer and incubated for 10 min before 5 μL is added to 5 μL 3% DMSO solutions of compounds in enzyme buffer, incubated for another 10 minutes, before 5 μL substrate solution is added and the reaction mixture is incubated at room temperature. 10 μL acceptor beads, suspended Epigenetic Buffer (Perkin Elmer AL008) from stock, are added and the suspension is incubated in the dark at room temperature, before 10 μL suspension of streptavidin donor beads (Perkin Elmer 6760002) in Epigenetic Buffer is added. After incubation at room temperature in the dark the plates are read.
(§4) Substrate solution: Substrate (final assay concentration 50-200 nM), 50 mM Hepes (pH 7.4-8.0), 0.003% Tween-20, 0.1% BS, 25 μM L-Asc, 10 μM α-KG. Enzyme Buffer: 50 mM Hepes (pH 7.4-8.0), 0.003% Tween-20, 0.1% BSA; 5 μM (NH4)2Fe(SO4)2

KDM2B (FBXL10) = target: T2, KDM2B (FBXL10) (Homo sapiens, UniProt Q8NHM5); assay: Histone lysine demethylase AlphaLISA assay, KDM2B; conditions: in vitro enzyme, read-out: KDM2B IC50 (HDME Inhibition)
T2 construct: 1-650; purchased BPS Bioscience, US; host or cells: Bac (baculovirus/insect cells)
T2 sequence (Q8NHM5 1-650): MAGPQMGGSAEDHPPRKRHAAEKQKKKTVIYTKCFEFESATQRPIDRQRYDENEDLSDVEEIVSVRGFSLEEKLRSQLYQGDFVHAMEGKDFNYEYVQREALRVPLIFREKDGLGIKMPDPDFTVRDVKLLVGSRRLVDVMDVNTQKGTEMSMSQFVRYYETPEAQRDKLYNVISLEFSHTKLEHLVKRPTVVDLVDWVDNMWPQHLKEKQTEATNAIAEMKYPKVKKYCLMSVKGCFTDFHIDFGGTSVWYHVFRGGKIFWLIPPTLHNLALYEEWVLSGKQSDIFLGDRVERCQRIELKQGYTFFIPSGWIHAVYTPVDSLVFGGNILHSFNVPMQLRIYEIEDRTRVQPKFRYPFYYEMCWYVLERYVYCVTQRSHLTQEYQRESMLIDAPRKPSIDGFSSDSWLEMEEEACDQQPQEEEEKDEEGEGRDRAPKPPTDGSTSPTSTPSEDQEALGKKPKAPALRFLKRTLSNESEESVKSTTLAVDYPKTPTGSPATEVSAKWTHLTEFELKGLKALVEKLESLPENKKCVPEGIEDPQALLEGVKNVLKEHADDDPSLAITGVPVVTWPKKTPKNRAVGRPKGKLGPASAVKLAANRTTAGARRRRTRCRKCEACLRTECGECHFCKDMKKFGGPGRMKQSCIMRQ
Method: as §1, §2, §3, §4

KDM6A (UTX) = target: T3, KDM6A (UTX) (Homo sapiens, UniProt O15550); assay: Histone lysine demethylase AlphaLISA assay, KDM6A; conditions: in vitro enzyme, read-out: KDM6A IC50 (HDME Inhibition)
T3 construct: 919-1401; host or cells: E. coli
T3 sequence (O15550 919-1401): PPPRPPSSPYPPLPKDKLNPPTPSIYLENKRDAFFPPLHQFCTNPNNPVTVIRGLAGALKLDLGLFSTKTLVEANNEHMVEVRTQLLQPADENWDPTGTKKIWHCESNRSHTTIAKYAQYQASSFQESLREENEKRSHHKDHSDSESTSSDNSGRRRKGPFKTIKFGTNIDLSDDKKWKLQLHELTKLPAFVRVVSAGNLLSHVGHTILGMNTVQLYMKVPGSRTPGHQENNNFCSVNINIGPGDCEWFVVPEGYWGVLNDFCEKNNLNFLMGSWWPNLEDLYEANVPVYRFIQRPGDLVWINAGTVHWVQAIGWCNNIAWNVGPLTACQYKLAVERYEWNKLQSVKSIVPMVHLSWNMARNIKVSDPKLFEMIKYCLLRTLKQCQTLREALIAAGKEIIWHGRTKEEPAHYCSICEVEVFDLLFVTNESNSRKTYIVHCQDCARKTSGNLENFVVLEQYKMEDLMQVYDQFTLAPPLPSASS
Method: as §1, §2, §3, §4

PHF8 (KDM7) = PHF8 (KDM7) (Homo sapiens, UniProt Q9UPP1); assay: Histone lysine demethylase AlphaLISA assay, PHF8; conditions: in vitro enzyme, read-out: PHF8 IC50 (HDME Inhibition)
PHF8 (KDM7), sequence (Q9UPP1 whole entry): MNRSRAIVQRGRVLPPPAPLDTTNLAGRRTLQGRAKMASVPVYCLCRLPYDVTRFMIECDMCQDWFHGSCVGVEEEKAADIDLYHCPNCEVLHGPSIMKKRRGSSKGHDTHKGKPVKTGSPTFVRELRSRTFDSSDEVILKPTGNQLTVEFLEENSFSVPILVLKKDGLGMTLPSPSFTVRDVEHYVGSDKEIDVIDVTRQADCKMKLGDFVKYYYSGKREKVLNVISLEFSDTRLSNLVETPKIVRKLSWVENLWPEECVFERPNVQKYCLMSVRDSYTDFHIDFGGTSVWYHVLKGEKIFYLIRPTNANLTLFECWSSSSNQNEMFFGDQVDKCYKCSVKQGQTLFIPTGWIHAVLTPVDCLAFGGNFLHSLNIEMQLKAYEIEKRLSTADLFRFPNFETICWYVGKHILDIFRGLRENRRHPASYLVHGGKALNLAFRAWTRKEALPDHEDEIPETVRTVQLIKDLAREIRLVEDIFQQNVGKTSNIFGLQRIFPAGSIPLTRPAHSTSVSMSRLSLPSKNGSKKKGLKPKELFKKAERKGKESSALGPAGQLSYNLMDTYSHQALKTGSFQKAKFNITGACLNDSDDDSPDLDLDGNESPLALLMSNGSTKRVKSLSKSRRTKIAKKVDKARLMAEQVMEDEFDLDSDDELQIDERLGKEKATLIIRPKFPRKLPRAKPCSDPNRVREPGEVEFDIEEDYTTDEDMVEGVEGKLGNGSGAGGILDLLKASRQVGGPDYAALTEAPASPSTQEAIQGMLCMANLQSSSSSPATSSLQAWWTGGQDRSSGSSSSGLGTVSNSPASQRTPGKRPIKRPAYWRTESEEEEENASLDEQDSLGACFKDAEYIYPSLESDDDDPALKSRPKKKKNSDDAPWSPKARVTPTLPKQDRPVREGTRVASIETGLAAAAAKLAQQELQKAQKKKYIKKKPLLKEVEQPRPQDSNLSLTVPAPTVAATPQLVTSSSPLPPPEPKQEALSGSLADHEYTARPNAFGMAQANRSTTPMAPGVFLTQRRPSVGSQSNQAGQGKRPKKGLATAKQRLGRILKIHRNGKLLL
Method: as §1, §2, §3, §4

| SMILES | IC50 (KDM5B (PLU-1)) | IC50 (KDM2B (FBXL10)) | IC50 (KDM6A (UTX)) | IC50 (PHF8 (KDM7)) |
| --- | --- | --- | --- | --- |
| C=CCN(CC=C)C(=O)[C@H](CC(=O)NCC1(CO)CC1)NCc1cc(C(=O)O)ccn1 [Compound 11, 2-({[(1S)-1-[bis(prop-2-en-1-yl)carbamoyl]-2-({[1-(hydroxymethyl)cyclo-propyl]methyl}carba-moyl)ethyl]amino}methyl)pyridine-4-carboxylic acid] | 0.25 to 2.5 µM | 0.25 to 2.5 µM | – | – |
| C=CCN(CC=C)C(=O)[C@@H](CC(=O)NCC1CC1)NCc1cc(C(=O)O)ccn1 [Compound 18, 2-({[(1R)-1-[bis(prop-2-en-1-yl)carbamoyl]-2-[(cyclopropylmethyl)carbamoyl]ethyl]amino}methyl)pyridine-4-carboxylic acid] | 0.25 to 2.5 µM | 0.25 to 2.5 µM | > 2.5 µM | – |
| O=C(O)c1ccnc(CNCC(=O)N2CCCCC2)n1 [Compound 23, 2-({[2-oxo-2-(piperidin-1-yl)ethyl]amino}methyl) pyrimidine-4-carboxylic acid] | > 2.5 µM | 0.25 to 2.5 µM | – | – |
| C=CCN(CC=C)C(=O)[C@@H](CC(=O)NCCCC)NCc1cc(C(=O)O)ccn1 [Compound 24, 2-({[(1R)-1-[bis(prop-2-en-1-yl)carbamoyl]-2-(butylcarbamoyl)ethyl]amino}methyl)pyridine-4-carboxylic acid] | > 2.5 µM | 0.25 to 2.5 µM | > 2.5 µM | – |
| C=CCN(CC=C)C(=O)[C@@H](CCC(N)=O)NCc1cc(C(=O)O)ccn1 [Compound 25, 2-({[(1R)-1-[bis(prop-2-en-1-yl)carbamoyl]-3-carbamoylpropyl]amino}methyl)pyridine-4-carboxylic acid] | 0.25 to 2.5 µM | 0.25 to 2.5 µM | – | 0.25 to 2.5 µM |
| C=CCN(CC=C)C(=O)[C@H](CCCCNC(=O)OC(C)(C)C)NCc1cc(C(=O)O)ccn1 [Compound 40, 2-({[(1S)-1-[bis(prop-2-en-1-yl)carbamoyl]-5-{[(tert-butoxy)carbonyl]amino}pentyl]amino}methyl) pyridine-4-carboxylic acid] | 0.25 to 2.5 µM | 0.25 to 2.5 µM | – | – |
| CCN(CC)C(=O)CCN(CCO)Cc1cc(C(=O)O)ccn1 [Compound 44, 2-({[2-(diethylcarbamoyl)ethyl](2-hydroxyethyl)amino}methyl)pyridine-4-carboxylic acid] | < 0.25 µM | 0.25 to 2.5 µM | – | – |
| CCCC(NCC(=O)N1CCCCC1)c1cc(C(=O)O)ccn1 (centres unmarked) [Compound 45, 2-(1-{[2-oxo-2-(piperidin-1-yl)ethyl]amino}butyl) pyridine-4-carboxylic acid] | – | 0.25 to 2.5 µM | – | 0.25 to 2.5 µM |
| COc1ccc(CCCN(CC(=O)N2CCCCC2)Cc2cc(C(=O)O)ccn2)cc1 [Compound 46, 2-({[3-(4-methoxyphenyl)propyl] [2-oxo-2-(piperidin-1-yl)ethyl]amino}methyl) pyridine-4-carboxylic acid] | – | 0.25 to 2.5 µM | – | 0.25 to 2.5 µM |
| CC(c1cc(C(=O)O)ccn1)N(C)CC(=O)N1CCCCC1 (centres unmarked) [Compound 47, 2-(1-{methyl[2-oxo-2-(piperidin-1-yl)ethyl]amino}ethyl) pyridine-4-carboxylic acid] | > 2.5 µM | 0.25 to 2.5 µM | – | – |
| O=C(O)c1ccnc(CN2CCn3ccnc3C2)c1 [Compound 52, 2-{5H,6H,7H,8H-imidazo[1,2-a]pyrazin-7-ylmethyl}pyridine-4-carboxylic acid] | 0.25 to 2.5 µM | > 2.5 µM | > 2.5 µM | – |
| CN(C)CC1CCN(Cc2cc(C(=O)O)ccn2)Cc2nccn21 (centres unmarked) [Compound 54, 2-({5-[(dimethylamino)methyl]-5H,6H,7H,8H,9H-imidazo[1,2-a][1,4]diazepin-8-yl}methyl)pyridine-4-carboxylic acid] | 0.25 to 2.5 µM | > 2.5 µM | – | – |

Further lines, results first:

| IC50 (KDM5B (PLU-1)) | IC50 (KDM2B (FBXL10)) | IC50 (KDM6A (UTX)) | IC50 (PHF8 (KDM7)) | SMILES |
| --- | --- | --- | --- | --- |
| 0.25 to 2.5 µM | 0.25 to 2.5 µM | – | 0.25 to 2.5 µM | CC(C)C[C@@H]1[C@@H](O)CC(C)N1Cc1cc(C(=O)O)ccn1 (stereo partly drawn) [Compound 59, 2-{[(2R,3S)-3-hydroxy-5-methyl-2-(2-methylpropyl)pyrrolidin-1-yl]methyl}pyridine-4-carboxylic acid] |
| > 2.5 µM | 0.25 to 2.5 µM | – | > 2.5 µM | O=C(O)c1ccnc(CN2CCCCC2CO)c1 (centres unmarked) [Compound 66, 2-{[2-(hydroxymethyl)piperidin-1-yl]methyl} pyridine-4-carboxylic acid] |
| 0.25 to 2.5 µM | – | > 2.5 µM | 0.25 to 2.5 µM | CCNC(=O)C1CCN(Cc2cc(C(=O)O)ccn2)C1 (centres unmarked) [Compound 76, 2-{[3-(ethylcarbamoyl)pyrrolidin-1-yl]methyl}pyridine-4-carboxylic acid] |
| 0.25 to 2.5 µM | – | > 2.5 µM | 0.25 to 2.5 µM | CCNC(=O)C[C@@H]1CCN(Cc2cc(C(=O)O)ccn2)C1 [Compound 77, 2-{[(3S)-3-[(ethylcarbamoyl)methyl]pyrrolidin-1-yl]methyl}pyridine-4-carboxylic acid] |
| 0.25 to 2.5 µM | – | > 2.5 µM | < 0.25 µM | O=C(O)c1ccnc(CNCc2cn(Cc3ccc(F)cc3)c3ncccc23)c1 [Compound 83, 2-[({[1-(4-fluorobenzyl)-1H-pyrrolo[2,3-b]pyridin-3-yl]methyl}amino)methyl]pyridine-4-carboxylic acid] |
| < 0.25 µM | – | > 2.5 µM | < 0.25 µM | O=C(O)c1ccnc(CNCc2cccnc2)c1 [Compound 84, 2-{[(pyridin-3-ylmethyl)amino]methyl}pyridine-4-carboxylic acid] |
| – | < 0.25 µM | > 2.5 µM | – | O=C(O)c1ccnc(CNCc2cncc3ccccc23)c1 [Compound 85, 2-{[(isoquinolin-4-ylmethyl)amino]methyl}pyridine-4-carboxylic acid] |
| < 0.25 µM | 0.25 to 2.5 µM | – | < 0.25 µM | O=C(O)c1ccnc(CNCc2ccc3ncccc3c2)c1 [Compound 87, 2-{[(quinolin-6-ylmethyl)amino]methyl}pyridine-4-carboxylic acid] |
| – | < 0.25 µM | – | < 0.25 µM | O=C(O)c1ccnc(CNC2CCc3c(CCc4ccccc4)ccnc32)c1 (centres unmarked) [Compound 96, 2-({[4-(2-phenylethyl)-5H,6H,7H-cyclopenta[b]pyridin-7-yl]amino}methyl)pyri-dine-4-carboxylic acid] |
| < 0.25 µM | < 0.25 µM | – | < 0.25 µM | CCc1ccnc2c1CCC2NCc1cc(C(=O)O)ccn1 (centres unmarked) [Compound 97, 2-[({4-ethyl-5H,6H,7H-cyclopenta[b]pyridin-7-yl}amino)methyl]pyri-dine-4-carboxylic acid] |
| 0.25 to 2.5 µM | 0.25 to 2.5 µM | – | 0.25 to 2.5 µM | CC1(C)Cc2cccnc2C1NCc1cc(C(=O)O)ccn1 (centres unmarked) [Compound 102, 2-[({6,6-dimethyl-5H,6H,7H-cyclopenta[b]pyridin-7-yl}amino)methyl]pyri-dine-4-carboxylic acid] |
